This is an account of results in patent US11197836B2, “Topical vasoconstrictor preparations and methods for protecting cells during cancer chemotherapy and radiotherapy” (WISCONSIN ALUMNI RESEARCH FOUNDATION, priority 2005, dated 2021).

The structures appear in SMILES notation. Bounds are passed on as bounds.

The nature of series [1]: Dissolution and 24 hr solution status of vasoconstrictor salts in ethanol:PG:water diluents, Example 6. It is filed as physicochemical. The method, then: Aliquots of each vasoconstrictor salt were weighed into glass test tubes. The volume of liquid necessary to achieve the indicated final drug concentration was then added.
(§1) The approximate amount of heat required to dissolve the vasoconstrictor salt in each diluent is indicated. Once diluted, samples were sealed and held at room temperature (22° C.) for 24 hours and then at 4° C. for 24 hours. Skin blanch induced by the topical formulation was assessed by applying freshly made, clear formulation to human skin shortly after initial mixing. Drug solutions were monitored for the appearance of precipitated material over a 48 hour observation period.

Series [2] concerns radiation-induced alopecia. To be noted: 950 mM in 50:30:20 ethanol:PG:water, 10 day old rats. The method, then: At specific time points, digital images were recorded to show areas of skin blanch in the epi-treated rats.
Another series deals with human oral mucosa. The method, then:
A QTip wetted with the 1 mM solution was used to swab the lower lip and oral mucosa adjoining the lower lip during the first 20 min. […] Images were taken and then scored for the degree of mucosal blanch observed.

The subject of series [3] is radiation-induced oral mucositis. Description: Radiation-induced oral mucositis in hamster cheek pouch, Example 16. Conditions: for mucosal pathology: hamster cheek pouch.
A further series deals with human skin. The experiment in a line: Human skin blanch 20 min after topical application, Example 6. It counts as in vivo. Conditions: for Skin Blanch: 600 mM, human skin, 20 min after topical application. The method, then: as §1
The subject of a further series is human forearm skin. The experiment in a line: Human forearm skin blanch and irritation with permeation enhancers, Example 8. It counts as in vivo. To be noted: water. The method, then: In samples where a clear, norepinephrine-containing solution was achieved, an aliquot (˜100 μl) was applied to a ˜1 cm^2 area of human forearm skin using a cotton swab. The extent of skin blanch (i.e., dermal vasculature constriction) beneath the application site was visually scored over the 60 min following application.

Where [4] appears, read: 50:30:20 Ethanol:PG:water, 750 mM.
Where [5] appears, read: 15:30:55 Ethanol:PG:water, 1000 mM.
Where [6] appears, read: 20:30:50 Ethanol:PG:water, 1500 mM.
The mark [7] stands for this setting: 60:0:40 isopropanol:PG:water, 1500 mM.
Setting [8] is: 10 mM topical, human lip and oral mucosa.
Setting [9] is: 0:50:50 Ethanol:PG:water, 1800 mM.
Setting [10] is: 0:80:20 Ethanol:PG:water, 1800 mM.
Where [11] appears, read: 12:30:58 Ethanol:PG:water, 450 mM.
Setting [12] is: 12:30:58 Ethanol:PG:water, 600 mM.
[13] abbreviates: 12:30:58 Ethanol:PG:water, 750 mM.
Where [14] appears, read: 15:30:55 Ethanol:PG:water, 600 mM.
Where [15] appears, read: 33:33:33 Ethanol:PG:water, 1800 mM.
[16] abbreviates: 40:25:35 Ethanol:PG:water, 600 mM.
[17] abbreviates: 40:30:30 Ethanol:PG:water, 300 mM.
Where [18] appears, read: 44:18:33 Ethanol:PG:water, 600 mM.
Where [19] appears, read: 45:25:30 Ethanol:PG:water, 300 mM.
Where [20] appears, read: 45:25:30 Ethanol:PG:water, 600 mM.
Where [21] appears, read: 50:20:30 Ethanol:PG:water, 600 mM.
Setting [22] is: 50:25:25 Ethanol:PG:water, 600 mM.
Where [23] appears, read: 50:30:20 Ethanol:PG:water, 600 mM.
Where [24] appears, read: 55:20:25 Ethanol:PG:water, 600 mM.
Where [25] appears, read: 60:20:20 Ethanol:PG:water, 600 mM.
Setting [26] is: 10:30:60 Ethanol:PG:water, 4000 mM.
Where [27] appears, read: 10:30:60 Ethanol:PG:water, 5000 mM.
The mark [28] stands for this setting: 10:30:60 Ethanol:PG:water, 5500 mM.
Setting [29] is: 12:30:58 Ethanol:PG:water, 3300 mM.
Where [30] appears, read: 15:30:55 Ethanol:PG:water, 500 mM.

On to `CNC[C@H](O)c1ccc(O)c(O)c1.Cl` (racemic) [Epi (±), (±) epinephrine-HCl], for which, in series [1] (setting [4]), the “Heat required to completely dissolve vasoconstrictor salt (#secs. at 100° C.)” value (“Heat required” below) stood at 0 s, the “Sample status after 24 hr at 4° C.” value is listed as “clear” and the “Sample status after 24 hr at ~22° C.” value is “clear”. Besides, the “skin blanch in treated skin field” value in series [2] (by 120 min) is reported as “single blanched field”. Moreover, the “coat protection on day 20” value in series [2] (four applications, 7.5 Gy whole-body γ radiation) is “confluent area of protected coat”.
As to `CNC[C@H](O)c1ccc(O)c(O)c1.O=C(O)C(O)C(O)C(=O)O` [Epi, L (−) epinephrine-tartrate], in series [1] (setting [5]), the “Heat required” value is 0 s, the “Sample status after 24 hr at 4° C.” value is listed as “clear” and the “Sample status after 24 hr at ~22° C.” value is listed as “clear”. Besides, in series [1] (setting [6]), the “Heat required” value was determined as 0 s, the “Sample status after 24 hr at 4° C.” value was “clear” and the “Sample status after 24 hr at ~22° C.” value is listed as “clear”. In series [1] (setting [7]), the “Heat required” value was 0 s, the “Sample status after 24 hr at 4° C.” value was “clear” and the “Sample status after 24 hr at ~22° C.” value was “clear”. In addition, the blanch response result with human oral mucosa (1 mM solution swabbed on lower lip and oral mucosa during first 20 min, human) was “little blanch response”. In the series with human oral mucosa (10 mM topical, four times over 50 min, human lip and oral mucosa), this compound displayed a duration of blanching of 1.5 to 2 h. For the same compound, in the series on human oral mucosa (setting [8]), the “time to clear blanching of lip and mucosa” value is at most 20 min; the “time to normal color lip and mucosa” value is at most 3 h. In series [3] (hamster cheek pouch mucosal surface), the “topical concentration completely protective against γ radiation-induced pathology” value was determined as 400 μM. The mucosal pathology result in series [3] (large excess doses combined with 24 min of irradiation (40 Gy)) is reported as “severe mucosal pathology”. The mucosal pathology entry in series [3] (large excess doses without irradiation) was “no discernible mucosal pathology”.
Turning to `COc1ccc(OC)c(C(O)C(C)N)c1` (stereo not drawn) [Methoxamine], the “potency to induce skin blanch” value in the series with human skin (applied to unbroken human skin) is on record as “lacks the potency to adequately induce skin blanch”.
`NC[C@H](O)c1ccc(O)c(O)c1.O=C(O)C(O)C(O)C(=O)O` [Nep, L (−) norepinephrine-tartrate]: the “Heat required” value in series [1] (setting [9]) turned out to be 6 s; in series [1] (setting [10]) it was 24 s; in series [1] (setting [11]), 0 s; in series [1] (setting [12]), 0 s; in series [1] (setting [13]), 0 s; in series [1] (setting [14]), 0 s. In addition, the “Heat required” value in series [1] (setting [5]) was 0 s; in series [1] (setting [15]) it was 18 s; in series [1] (setting [16]), 2 s; in series [1] (setting [17]) it was 2 s; in series [1] (setting [18]) it was 2 s; in series [1] (setting [19]), 2 s. For the same compound, the “Heat required” value in series [1] (setting [20]) came to 2 s; in series [1] (setting [21]), 1 s; in series [1] (setting [22]), 1 s; in series [1] (setting [23]), 1 s; in series [1] (setting [24]), 1 s; in series [1] (setting [25]) it was 2 s. The “Sample status after 24 hr at 4° C.” value was “precipitate” in series [1] (setting [9]); “precipitate” in series [1] (setting [10]); “clear” in series [1] (setting [11]); “clear” in series [1] (setting [12]); “clear” in series [1] (setting [13]); “clear” in series [1] (setting [14]). Also, the “Sample status after 24 hr at 4° C.” value is listed as “clear” in series [1] (setting [5]); “precipitate” in series [1] (setting [15]); “clear” in series [1] (setting [16]); “clear” in series [1] (setting [17]); “clear” in series [1] (setting [18]); “clear” in series [1] (setting [19]). In addition, the “Sample status after 24 hr at 4° C.” value in series [1] (setting [20]) was “clear”; in series [1] (setting [21]), “clear”; in series [1] (setting [22]), “clear”; in series [1] (setting [23]), “clear”; in series [1] (setting [24]), “precipitate”; in series [1] (setting [25]), “clear”. Besides, the “Sample status after 24 hr at ~22° C.” value is reported as “precipitate” in series [1] (setting [9]); “precipitate” in series [1] (setting [10]); “clear” in series [1] (setting [11]); “clear” in series [1] (setting [12]); “clear” in series [1] (setting [13]); “clear” in series [1] (setting [14]). For the same compound, the “Sample status after 24 hr at ~22° C.” value in series [1] (setting [5]) is listed as “clear”; in series [1] (setting [15]) it was “precipitate”; in series [1] (setting [16]) it was “clear”; in series [1] (setting [17]), “clear”; in series [1] (setting [18]), “clear”; in series [1] (setting [19]), “clear”. Moreover, the “Sample status after 24 hr at ~22° C.” value in series [1] (setting [20]) is recorded as “clear”; in series [1] (setting [21]), “clear”; in series [1] (setting [22]), “clear”; in series [1] (setting [23]), “clear”; in series [1] (setting [24]), “precipitate”; in series [1] (setting [25]), “clear”. The “Skin Blanch” value with human skin (55:20:25 Ethanol:PG:water) is on record as “+++++ (+++++ = 90-100% blanch)”; in the series with human skin (60:20:20 Ethanol:PG:water) it was “+++++ (+++++ = 90-100% blanch)”; in the series with human forearm skin (300 mM Nep, 0.8% SLS, 20 min) it was 0; in the series with human forearm skin (300 mM Nep, 20 min after topical application), 0; in the series with human forearm skin (300 mM Nep, ethanol, PG, 0.3% SLS, 5% Menthone, 20 min) it was “+++++ (+++++ = 90-100% blanch)”; in the series on human forearm skin (600 mM NEp, ethanol, PG, 20 min) it was “+++++ (+++++ = 90-100% blanch)”. Moreover, the “Skin Blanch” value in the series on human forearm skin (750 mM NEp, ethanol, PG, 20 min) was “+++++ (+++++ = 90-100% blanch)”. Also, the “Skin Irritation” value in the series on human forearm skin (300 mM Nep) is on record as “No”; in the series with human forearm skin (300 mM Nep, 0.8% SLS), “No”; in the series with human forearm skin (300 mM Nep, ethanol), “No”; with human forearm skin (300 mM Nep, ethanol, 0.8% SLS), “Slight”; with human forearm skin (300 mM Nep, ethanol, 5% Menthone), “Slight”; in the series on human forearm skin (300 mM Nep, ethanol, PG), “No”. Moreover, the “Skin Irritation” value is “No” with human forearm skin (300 mM Nep, ethanol, PG, 0.3% SLS); “Yes” in the series with human forearm skin (300 mM Nep, ethanol, PG, 0.3% SLS, 5% Menthone); “No” in the series with human forearm skin (300 mM Nep, ethanol, PG, 5% Methone); “No” in the series on human forearm skin (300 mM Nep, ethanol, Transcutol); “No” in the series on human forearm skin (300 mM Nep, ethanol, Transcutol, 0.4% SLS); “No” in the series with human forearm skin (600 mM NEp, ethanol, PG). In the series on human forearm skin (750 mM NEp, ethanol, PG), the “Skin Irritation” value is listed as “No”.
With `CNC[C@H](O)c1cccc(O)c1.Cl` [PhE, R (−) phenylephrine-HCl], the “Heat required” value in series [1] (setting [26]) stood at 12 s; in series [1] (setting [27]), 12 s; in series [1] (setting [28]), 16 s; in series [1] (setting [29]) it was 8 s; in series [1] (setting [30]) it was 8 s. Besides, the “Sample status after 24 hr at 4° C.” value in series [1] (setting [26]), in series [1] (setting [27]), in series [1] (setting [28]), in series [1] (setting [29]) and in series [1] (setting [30]) was “precipitate” each time. Moreover, the “Sample status after 24 hr at ~22° C.” value in series [1] (setting [26]) is “precipitate”; in series [1] (setting [27]) it was “precipitate”; in series [1] (setting [28]), “precipitate”; in series [1] (setting [29]) it was “precipitate”; in series [1] (setting [30]), “clear”.
